Results reported in US6914045B2, “Glycopeptide antibiotics” (Wyeth Holdings Corporation, priority 2001, dated 2005).
In brackets after ≈: the same amount, converted by molar mass.

Tests used:
Assay in all cases: in vitro antibacterial evaluation, MIC by broth dilution
Format in all cases: cell-based
Staphylococcus sp. = conditions: broth dilution, 18 hours at 35° C.
Procedure, shortened: (§1)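 Test organisms, which included recent clinical isolates resistant to methicillin, penicillin and/or vancomycin, were inoculated at 5×10^5 CFU/mL into Muller-Hinton II […] containing antibiotic at 64-0.06 μg/mL. Minimum inhibitory concentrations were then read as the lowest level inhibiting growth.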

Streptococcus sp. = conditions: broth dilution, 18 hours at 35° C.
Procedure, shortened: as §1

Enterococcus sp. = conditions: broth dilution, 18 hours at 35° C.
Procedure, shortened: as §1

Escherichia coli = system: Escherichia coli
Procedure, shortened: as §1

- MIC Staphylococcus aureus (GC 3051) (Staphylococcus sp.; strain GC 3051): 0.5 µg/mL (≈ 0.347 µM)
- MIC Staphylococcus aureus (GC 3053) (Staphylococcus sp.; strain GC 3053): 0.5 µg/mL (≈ 0.347 µM)
- MIC Staphylococcus aureus (GC 4542) (Staphylococcus sp.; strain GC 4542): 0.5 to 1 µg/mL
- MIC Staphylococcus aureus-SMITH (GC 4543) (Staphylococcus sp.; strain GC 4543): 0.5 to 1 µg/mL
- MIC Staphylococcus aureus (GC 4544) (Staphylococcus sp.; strain GC 4544): 0.5 to 1 µg/mL
- MIC Staphylococcus aureus (GC 4545) (Staphylococcus sp.; strain GC 4545): 0.5 to 1 µg/mL
- MIC Coagulase Negative Staphylococcus (GC 4547) (Staphylococcus sp.; strain GC 4547): 1 to 2 µg/mL
- MIC Coagulase Negative Staphylococcus (GC 4548) (Staphylococcus sp.; strain GC 4548): <0.5 to 1 µg/mL
- MIC Coagulase Negative Staphylococcus (GC 4549) (Staphylococcus sp.; strain GC 4549): <0.5 to 1 µg/mL
- MIC Coagulase Negative Staphylococcus (GC 4551) (Staphylococcus sp.; strain GC 4551): 1 µg/mL (≈ 0.695 µM)
- MIC Coagulase Negative Staphylococcus (GC 6257) (Staphylococcus sp.; strain GC 6257): 2 µg/mL (≈ 1.39 µM)
- MIC Coagulase Negative Staphylococcus (ID-3941) (Staphylococcus sp.; strain ID-3941): 1 µg/mL (≈ 0.695 µM)
- MIC Staphylococcus aureus-SMITH (GC 4543) (Staphylococcus sp.; strain SMITH GC 4543): 0.5 to 1 µg/mL
- MIC Streptococcus agalactiae (GC 4564) (Streptococcus sp.; Streptococcus agalactiae (GC 4564)): <0.12 µg/mL
- MIC Streptococcus pyogenes (GC 4563) (Streptococcus sp.; Streptococcus pyogenes (GC 4563)): >0.12 µg/mL
- MIC Streptococcus pyogenes (ID-3187) (Streptococcus sp.; Streptococcus pyogenes (ID-3187)): <0.5 µg/mL
- MIC Streptococcus pyogenes (GC 4563) (Streptococcus sp.; strain GC 4563): >0.12 µg/mL
- MIC Streptococcus agalactiae (GC 4564) (Streptococcus sp.; strain GC 4564): <0.12 µg/mL
- MIC Streptococcus pyogenes (ID-3187) (Streptococcus sp.; strain ID-3187): <0.5 µg/mL
- MIC Enterococcus avium (GC 4558) (Enterococcus sp.; Enterococcus avium (GC 4558)): 0.5 to 2 µg/mL
- MIC Enterococcus faecalis (ATCC 29212) (Enterococcus sp.; Enterococcus faecalis (ATCC 29212)): 0.5 to 2 µg/mL
- MIC Enterococcus faecalis (GC 2242) (Enterococcus sp.; Enterococcus faecalis (GC 2242)): 0.5 to 1 µg/mL
- MIC Enterococcus faecalis (GC 2691) (Enterococcus sp.; Enterococcus faecalis (GC 2691)): 0.5 µg/mL (≈ 0.347 µM)
- MIC Enterococcus faecalis (GC 3059) (Enterococcus sp.; Enterococcus faecalis (GC 3059)): 0.5 µg/mL (≈ 0.347 µM)
- MIC Enterococcus faecalis (GC 4552) (Enterococcus sp.; Enterococcus faecalis (GC 4552)): 0.5 to 1 µg/mL
- MIC Enterococcus faecalis (GC 4553) (Enterococcus sp.; Enterococcus faecalis (GC 4553)): 0.5 to 1 µg/mL
- MIC Enterococcus faecalis (GC 4554) (Enterococcus sp.; Enterococcus faecalis (GC 4554)): 0.5 to 1 µg/mL
- MIC Enterococcus faecalis (GC 6189) (Enterococcus sp.; Enterococcus faecalis (GC 6189)): 0.5 µg/mL (≈ 0.347 µM)
- MIC Enterococcus faecium (GC 2243) (Enterococcus sp.; Enterococcus faecium (GC 2243)): 1 to 2 µg/mL
- MIC Enterococcus faecium (GC 4556) (Enterococcus sp.; Enterococcus faecium (GC 4556)): 2 µg/mL (≈ 1.39 µM)
- MIC Enterococcus faecium (GC 4557) (Enterococcus sp.; Enterococcus faecium (GC 4557)): 1 to 2 µg/mL
- MIC Enterococcus faecalis (ATCC 29212) (Enterococcus sp.; strain ATCC 29212): 0.5 to 2 µg/mL
- MIC Enterococcus faecalis (GC 2242) (Enterococcus sp.; strain GC 2242): 0.5 to 1 µg/mL
- MIC Enterococcus faecium (GC 2243) (Enterococcus sp.; strain GC 2243): 1 to 2 µg/mL
- MIC Enterococcus faecalis (GC 2691) (Enterococcus sp.; strain GC 2691): 0.5 µg/mL (≈ 0.347 µM)
- MIC Enterococcus faecalis (GC 3059) (Enterococcus sp.; strain GC 3059): 0.5 µg/mL (≈ 0.347 µM)
- MIC Enterococcus faecalis (GC 4552) (Enterococcus sp.; strain GC 4552): 0.5 to 1 µg/mL
- MIC Enterococcus faecalis (GC 4553) (Enterococcus sp.; strain GC 4553): 0.5 to 1 µg/mL
- MIC Enterococcus faecalis (GC 4554) (Enterococcus sp.; strain GC 4554): 0.5 to 1 µg/mL
- MIC Enterococcus faecium (GC 4556) (Enterococcus sp.; strain GC 4556): 2 µg/mL (≈ 1.39 µM)
- MIC Enterococcus faecium (GC 4557) (Enterococcus sp.; strain GC 4557): 1 to 2 µg/mL
- MIC Enterococcus avium (GC 4558) (Enterococcus sp.; strain GC 4558): 0.5 to 2 µg/mL
- MIC Enterococcus faecalis (GC 6189) (Enterococcus sp.; strain GC 6189): 0.5 µg/mL (≈ 0.347 µM)
- MIC Escherichia coli (ATCC 25922) (Escherichia coli; strain ATCC 25922, 18 hours at 35° C.): 64-64 μg/mL
- MIC Escherichia coli (GC 4559) (Escherichia coli; strain GC 4559, 18 hours at 35° C.): 64 µg/mL (≈ 44.5 µM)
- MIC Escherichia coli (GC 4560) (Escherichia coli; strain GC 4560, 18 hours at 35° C.): 0.5 to 2 µg/mL
Compound: CC(c1ccccc1)C1NC(=O)CNC(=O)C(CO)NC(=O)C(C(O)C2CNC(=N)N2C2OC(CO)C(O)C(O)C2O)NC(=O)C(C(O)C2CNC(=N)N2)NC(=O)C(Cc2ccc(OC3OC(CO)C(OC4OC5COC(c6ccc(C(C)(C)C)cc6)OC5C(O)C4O)C(O)C3O)cc2)NC1=O (centres unmarked) [Example 147]
- MIC Staphylococcus haemolyticus (GC 4546) (Staphylococcus sp.; strain GC 4546): 1 to 2 µg/mL
